Data published in PMC10636063, “Progesterone activation of β1-containing BK channels involves two binding sites” (Nature Communications, 2023).
Values joined by “and” are separate entries in the source; they are usually repeats but may differ in a detail not shown here. Identical values can stand only once.

Assays:
[1] = target: T1, β1Y32V,W163I (double mutant) (Rattus norvegicus, UniProt P97678, W163I/Y32V); assay: Thermal unfolding (MST) of β1 double mutant; format: binding
T1 construct: FLAG (DYKDDDDK); made in house; host or cells: CHO cells, transient transfection, anti-flag immunoprecipitation
From the text: (§1) BK channel-forming slo1 cDNA (cbv1 isoform; AY330293) was cloned from rat cerebral artery SM cells, and inserted into pcDNA3.1 vector as described. BK β1 cDNA (KCNMB1 product; NP_011452; FJ154955) were isolated from rat cerebral artery SM cells and cloned as described. β4 cDNA (KCNMB4; NP_055320; AY028605) were generously provided by Dr. Ligia Toro. CHO cells were transiently transfected with cbv1 ± β1-, or β4-carrying pcDNA3.1 using X-tremeGENE HP (Sigma-Aldrich). Mutations to β1/4 cDNAs were conducted by Genscript, with sequences being confirmed to be >99% identical to KCNMB1 product; NP_011452 or β4 KCNMB4; NP_055320; respectively. β1/4 and mutant constructs were flag-tagged (DYKDDDDK-tag) by Genscript services for subsequent immunoprecipitation and use in microscale thermophoresis studies.
Wt β1, wt β4 and mutant constructs were purified by immunoprecipitation using Dynabeads Protein G Kit (10007D by Invitrogen) and following the manufacturer’s instructions. […] The unfolding profile of a protein is a plot of its fluorescence signal against temperature. […] During the heating process, fluorescence is recorded at 330 and 350 nm. The resulting fluorescence ratio change is then analyzed for onset and inflection points. The temperature of onset and inflection is determined using built-in analysis function in Nanotemper PR.therm-control software. […]

cbv1+β1W163I = target: T2, cbv1+β1W163I (Rattus norvegicus, UniProt P97678, W163I); assay: Channel activity (NPo) in POPE/POPS bilayers, cbv1+β1W163I; format: biochemical; conditions: for normalized NPo, time course Fig 2E: W163I PROG
T2 construct: made in house; host or cells: CHO cells, transient transfection; sucrose-gradient membrane preparation
From the text: as §1
Proteins for electrophysiological recordings in artificial lipid bilayers remained untagged. Cells were transiently transfected as described above, pelleted and re-suspended on ice in 10 ml of buffer solution of the following composition (mM): 30 KCl, 2 MgCl2, 10 HEPES, 5 EGTA; pH 7.2. A membrane preparation was obtained using a sucrose gradient as described. Aliquots were stored at −80 °C. BK channel-mediated ionic current was recorded in planar lipid bilayers consisting of a POPE:POPS 3:1 (w/w) mixture. Lipid mixtures were dried under N2 and re-suspended in 25 mg/ml of n-decane BK currents following incorporation into horizontal bilayers at 300/30 mM cis/trans gradient as detailed elsewhere. Ion currents were obtained during a 10-min gap-free recording at 0 mV in the presence of 0.01, 10 μM PROG, 10 μM PROG-oxime, or vehicle control (dimethyl sulfoxide; DMSO). Currents were obtained in gap-free mode using a Warner BC-525D amplifier, low pass-filtered at 1 kHz and sampled at 5 kHz with Digidata 1550B/pCLAMP 11 (Molecular Devices). For comparison with previous data from us[16],[17],[45]–[47], studies were conducted at 20–22 °C. PROG stock, oxime stock or vehicle control (DMSO) was added to the bilayer cis chamber to reach final concentrations (0.01–10 µM), with all compounds being dissolved with the same concentration of DMSO (0.1%); n = 5–10 for each group.
Patch-clamp and bilayer data were analyzed using Clampfit 10.7 software (Molecular Devices). NPo was used as an index of channel steady-state activity where N = number of channels in the patch (defined as a maximal number of opening levels at Po≤1) and Po=single channel open probability. Drug-induced NPo changes were determined by comparing baseline NPo (i.e., NPo with the patch/cell perfused with bath solution) to the NPo from the same patch/cell exposed to the agent under study (DMSO/PROG/oxime) dissolved in bath solution. NPo and mean open time values were automatically calculated using Clampfit 10.7, the latter using a 50% threshold detection event.

T2 sequence (P97678 whole entry W163I): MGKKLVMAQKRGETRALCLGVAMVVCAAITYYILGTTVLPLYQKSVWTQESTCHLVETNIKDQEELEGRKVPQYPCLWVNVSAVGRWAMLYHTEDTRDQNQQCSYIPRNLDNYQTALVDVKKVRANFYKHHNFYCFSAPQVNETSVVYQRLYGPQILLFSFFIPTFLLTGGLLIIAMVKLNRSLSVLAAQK
T2 sequence (Q62976 1-1148 isoform Q62976-2 partner): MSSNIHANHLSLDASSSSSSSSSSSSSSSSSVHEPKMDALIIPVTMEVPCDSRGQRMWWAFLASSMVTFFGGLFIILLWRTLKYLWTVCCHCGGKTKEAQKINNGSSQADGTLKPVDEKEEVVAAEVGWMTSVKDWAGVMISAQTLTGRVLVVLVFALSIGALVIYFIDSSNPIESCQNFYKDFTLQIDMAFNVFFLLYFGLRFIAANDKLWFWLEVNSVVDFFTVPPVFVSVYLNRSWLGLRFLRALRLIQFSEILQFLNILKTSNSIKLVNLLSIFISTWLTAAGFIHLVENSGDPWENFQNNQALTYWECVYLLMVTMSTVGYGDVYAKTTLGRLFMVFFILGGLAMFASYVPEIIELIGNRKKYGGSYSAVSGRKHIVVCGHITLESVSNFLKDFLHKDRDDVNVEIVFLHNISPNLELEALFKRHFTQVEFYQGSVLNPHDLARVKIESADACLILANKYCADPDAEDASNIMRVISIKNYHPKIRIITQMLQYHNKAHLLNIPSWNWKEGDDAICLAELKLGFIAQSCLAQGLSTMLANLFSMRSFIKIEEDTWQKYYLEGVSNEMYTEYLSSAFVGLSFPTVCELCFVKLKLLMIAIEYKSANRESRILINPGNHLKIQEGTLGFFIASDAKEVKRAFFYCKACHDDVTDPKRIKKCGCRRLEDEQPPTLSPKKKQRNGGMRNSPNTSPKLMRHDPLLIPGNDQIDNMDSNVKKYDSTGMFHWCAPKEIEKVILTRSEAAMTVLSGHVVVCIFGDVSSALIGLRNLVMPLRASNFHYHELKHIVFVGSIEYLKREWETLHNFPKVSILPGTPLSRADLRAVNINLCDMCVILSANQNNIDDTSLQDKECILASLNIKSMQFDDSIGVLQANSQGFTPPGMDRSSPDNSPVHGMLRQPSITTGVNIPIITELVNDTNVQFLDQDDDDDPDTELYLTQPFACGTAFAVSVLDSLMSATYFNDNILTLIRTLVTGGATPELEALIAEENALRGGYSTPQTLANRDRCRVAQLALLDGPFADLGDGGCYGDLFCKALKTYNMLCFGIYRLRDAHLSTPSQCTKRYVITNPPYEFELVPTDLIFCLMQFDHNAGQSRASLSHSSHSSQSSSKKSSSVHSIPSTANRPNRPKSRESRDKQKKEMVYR
T1 sequence (P97678 whole entry Y32V/W163I): as the sequence (P97678 whole entry W163I) above, with Y32V counted along it

SMILES: CC(=O)[C@H]1CC[C@H]2[C@@H]3CCC4=CC(=O)CC[C@]4(C)[C@H]3CC[C@]12C [PROG, Progesterone]
- effect on thermal unfolding / binding ([1]; 4.1 μM): not destabilized
- effect on thermal unfolding / binding ([1]; low concentrations (subμM)): still destabilized
- action on channel activity (NPo) (cbv1+β1W163I; 10 µM, vs DMSO): effectively abolished PROG action
- normalized NPo, time course Fig 2E (cbv1+β1W163I; time 1 min (normalisation reference)): 1
- normalized NPo, time course Fig 2E (cbv1+β1W163I; time 2 min): 0.8408 and 0.8822 and 1.039 and 0.6048 and 0.9835
- normalized NPo, time course Fig 2E (cbv1+β1W163I; time 6 min): 0.9156 and 1.236 and 1.01 and 0.7339 and 0.9865
- normalized NPo, time course Fig 2E (cbv1+β1W163I; time 7 min): 1.033 and 1.222 and 0.6583 and 1.166
- normalized NPo, time course Fig 2E (cbv1+β1W163I; time 8 min): 0.9156 and 0.8317 and 0.9282 and 1.117
- normalized NPo, time course Fig 2E (cbv1+β1W163I; time 9 min): 1.0966 and 0.7071 and 0.5738 and 1.067
- normalized NPo, time course Fig 2E (cbv1+β1W163I; time 10 min): 1.291 and 0.8215 and 0.6728 and 1.157
